The source of these data is patent publication US20130237582A1, “PHARMACEUTICAL COMBINATION OF PACLITAXEL AND A CDK INHIBITOR” (Piramal Enterprises Limited, priority 2010, published 2013).

For test [1], the system named is MDA-MB-468. The test can be described thus: Cell cycle progression and apoptosis by flow cytometry (sub-G1). The class given is cell-based, human. As to conditions: 50 μM. The protocol: Before analysis, cells were washed twice with PBS to remove the fixative and re-suspended in PBS containing 50 μg/mL propidium iodide and 50 μg/mL RNaseA. After incubation at room temperature (20-35° C.) for 20 min, cells were analyzed using flow cytometry. A Becton Dickinson FACS Calibur flow cytometer (BD, USA) was used for these studies. The argon ion laser set at 488 nm was used as an excitation source. Cells with DNA content between 2n and 4n were designated as being in G1, S and G2/M phases of the cell cycle, as defined by the level of red fluorescence. […] The number of cells in each cell cycle compartment was expressed as a percentage of the total number of cells present. The results are shown in Table 3 and graphically presented in FIG. 3A (MCF-7 cell lines) and FIG. 3B (MDA-MB-231 cell lines).
Comparison of the effect of Compound A and PARP inhibitor BSI-201 (Iniparib developed by Sanofi-Aventis. BSI-201 is prepared in-house) on cell cycle progression and apoptosis was evaluated in two TNBC cell lines. The asynchronous human TNBC cell lines MDA-MB-231 and MDA-MB-468 were seeded in […] tissue culture flask at a density of 0.5×10^6 cells per flask in RPMI 1460 with 10% FCS. After 24 h, cells were treated either with 1.5 and 3.0 μM of Compound A or 50 μM of PARP inhibitor BSI-201 for 72 h. After the incubation cells were harvested (trypsinised) and processed as given in example 6.
(In general: Flow cytometry measures light scatter and fluorescence of single cells or particles in a stream.)

For test [2], the system named is VEGF. The test can be described thus: VEGF reporter gene based assay (M-9 cells). The class given is cell-based. As to conditions: Homo sapiens, hypoxia, 20-24 h, read-out: IC50 for VEGF inhibition under hypoxia. The protocol: A cell line M-9 is MDA-MB-231 which is stably co-transfected with the VEGF-Luc construct (VEGF promoter in pGL2-basic) and a plasmid containing the Geneticin (G418) resistance gene which forms VEGF promoter reporter gene. The expression of the reporter gene in the clone cells, as measured by luciferase activity, is stable.
The effect of Compound A on VEGF inhibition was evaluated using the VEGF reporter gene based assay.
Lysis Assay Buffer (1×) • Tris-Phosphate (pH 7.8)-125 mM, DTT-10 mM, EDTA-10 mM, Glycerol-50% and Triton X-100-5%.
Luciferase Assay Reagent (LAR) • Luciferase Assay Buffer-8 mL, 530 μM ATP-530 μL, 270 μM CoA-1 mL and 170 μM Luciferin-1 mL.
Luciferase Assay Buffer (LAB) (1×) • Tricin (pH 7.8)-20 mM, Magnesia Alba-1.07 mM, MgSO4-2.67 mM, EDTA-0.1 mM and DTT-33.3 mM. ATP Stock made in LAB=5.85 mg/mL CoA Stock made in LAB=2.1 mg/mL Luciferin Stock made in LAB=1.5 mg/mL
1. M-9 cells were sub-cultured and maintained in RPMI-1640 Medium with supplement of 10% FBS, and 4 μL/ml G418 (Stock 100 mg/mL) in a humidified incubator at 37° C. and 5% CO2. 2. Cells were seeded at density of 3×10^4 cells/well in 180 μL volume in tissue culture grade 96 well white plates as well as transparent plates and allowed to adhere for 16-20 h in humidified CO2 incubator (5% CO2) at 37° C. A total of two sets of plates were made, as the incubation conditions are different. 3. Compound A, Sutent® and BSI-201 were diluted in medium serially so that final desired concentrations are achieved in the respective wells. (not more than 0.5% concentration of DMSO in the wells). 4. INCUBATION CONDITIONS: One set of plates are incubated under ambient atmospheric condition with 5% CO2, referred hereafter as NORMOXIC/OXIC PLATE. […] To all the wells, 100 μL Luciferase Assay Reagent (LAR) are added, plates are immediately read for Luminescence on TOPCOUNT™ (Packard, USA). The percentage inhibitions and Inhibitory Concentration (IC50) or Effective Concentration (EC50) are calculated in comparison with Control (untreated) values. […]
For orientation: A reporter such as luciferase makes a cellular process visible.

In test [3] the test system is MDA-MB-231. The test can be described thus: Cytotoxicity assay using propidium iodide (PI). It counts as cell-based, human. As to conditions: Homo sapiens, 48 h treatment, PI assay. How it is done: (§1) The propidium iodide fluorescence assay (PI) was carried out according to the procedure mentioned in Anticancer Drugs, 1995, 6, 522-32. The assay was developed to characterize the in vitro growth of human tumor cell lines as well as to test the cytotoxic activity of the compounds. Propidium iodide (PI) was used as a dye, which penetrates only damaged cellular membranes. Intercalation complexes are formed by PI with double-stranded DNA, which effect an amplification of the fluorescence. After freezing the cells at −20° C. for 24 h, PI had access to total DNA leading to total cell population counts. Background readings were obtained from cell-free wells containing media and propidium iodide. The human breast cancer cell lines (i.e. […] Control wells were treated with vehicle (DMSO). At the end of the incubation periods, the plates were assayed using PI cytotoxicity assay protocol. Percent cytoxicity was calculated at various drug concentrations and from the graph plotted the IC50 values were determined.

Test [4] deals with MDA-MB-231. The test can be described thus: Combination in vitro cytotoxicity (PI) assay. The class given is cell-based. As to conditions: Homo sapiens, then CM 72 h, read-out: % inhibition of Group IA. The protocol:
The propidium iodide fluorescence assay (PI) was carried out according to the procedure mentioned in Anticancer Drugs, 1995, 6, 522-32.
The assay was developed to characterize the in vitro growth of human tumor cell lines as well as to test the cytotoxic activity of the test compounds. Propidium iodide (PI) was used as a dye, which penetrates only, damaged cellular membranes. Intercalation complexes are formed by PI with double-stranded DNA, which effect an amplification of the fluorescence. After freezing the cells at −20° C. for 24 h, PI had access to total DNA leading to total cell population counts. Background readings were obtained from cell-free wells containing media and propidium iodide.
The human triple negative breast cancer cell line, MDA-MB-231 was seeded at a density of 1500-3000 cells/well in 180 μL of RPMI-1640 medium in a 96-well plate and incubated for about 16 h in humidified 5% CO2 incubator at 37±1° C. to allow the cells to adhere. The schedule consists of six treatment groups. In every treatment group, 20 μL of 10× compound (dissolved first in DMSO and then diluted in cell medium, final DMSO concentration not exceeding 0.5%) was used in the wells and the plate was incubated in humidified 5% CO2 incubator at 37±1° C. The medium was removed from the wells and washed with PBS. 100 μL of PI working solution (7 μg/mL) per well was added and the plates were stored at −80° C. for about 16 h. The plates were thawed and the fluorescence was measured using the POLARstar optima plate reader (USA) at excitation 536 nm and emission 590 nm.
(PI stock solution of 1 mg/mL was prepared by dissolving 1 mg PI in 1 mL of distilled water. PI working solution was prepared by adding 140 μL of stock solution to PBS to make up the volume to […] (7 μg/mL)).
The synergistic effects in TNBC MDA-MB-231 cell line have been evaluated using the CompuSyn software by Chou and Talalay, described in Pharmacological Reviews, 2006, 58, 621-681. Combination index (CI) is used to evaluate if a combination is additive, synergistic or antagonistic. CI<1 is synergistic, CI=1 is additive and CI>1 is antagonistic.

For test [5], the system named is MDA-MB-468. The test can be described thus: Cytotoxicity assay using propidium iodide (PI). The class given is cell-based, human. As to conditions: Homo sapiens, 48 h treatment, PI assay. The protocol:
as §1

The subject of test [6] is BT-549. The test can be described thus: Cytotoxicity assay using propidium iodide (PI). As to conditions: Homo sapiens, 48 h treatment. The class given is cell-based. How it is done: as §1

For orientation: IC50 means the concentration that inhibits the measured activity by half. Broadly, the inhibition is the drop in the measured response relative to a control, in per cent.

With `NC(=O)c1ccc(I)c([N+](=O)[O-])c1` [BSI-201, reference compound], in test [1], the “% apoptosis at 72 h” value was found to be 12.67%. Moreover, the IC50 in test [2] was over 100 µM.

Consider `CC(=O)O[C@H]1C(=O)[C@@]2(C)[C@H]([C@H](OC(=O)c3ccccc3)[C@]3(O)C[C@H](OC(=O)[C@H](O)[C@@H](NC(=O)c4ccccc4)c4ccccc4)C(C)=C1C3(C)C)[C@]1(OC(C)=O)CO[C@@H]1C[C@@H]2O` [Paclitaxel], for which, in test [3], half-maximal inhibition (IC50) required 0.9 µM. For the same molecule, the inhibition at 0.03 µM in test [4] (paclitaxel 0.03 μM 24 h) is -2.6%. Moreover, in test [4] (paclitaxel 0.1 μM 24 h), the inhibition at 0.1 µM was found to be 8.3%. The inhibition at 0.3 µM in test [4] (paclitaxel 0.3 μM 24 h) was 82.9%. The inhibition at 1 µM in test [4] (paclitaxel 1.0 μM 24 h) was determined as 88.7%. For the same molecule, the inhibition at 3 µM in test [4] (paclitaxel 3.0 μM 24 h) came to 89.1%.

Regarding `CCN(CC)CCNC(=O)c1c(C)[nH]c(/C=C2\C(=O)Nc3ccc(F)cc32)c1C` [Sunitinib, reference compound], the half-maximal inhibitory concentration (IC50) in test [3] was determined as 7.8 µM; in test [5], 10 µM; in test [6], 18 µM; in test [2], 15 µM.
